Measurements: ChEMBL document CHEMBL4308829, “Design and Synthesis of Novel Positive Allosteric Modulators of α7 Nicotinic Acetylcholine Receptors with the Ability To Rescue Auditory Gating Deficit in Mice” (J Med Chem, 2018)
Activity calls are given as the source filed them.

What was measured:
[1] = biological target: T1, Neuronal acetylcholine receptor subunit alpha-7 (Homo sapiens, UniProt P36544); test: Positive allosteric modulation of human alpha7 nAChR expressed in Xenopus laevis oocytes assessed as increase in acetylcholine-induced channel current at 10 uM at -90 mV holding potential preincubated for 2 mins followed by co-application with acetylcholine for 10 secs by two-electrode voltage clamp method relative to control; assay type: cell-based
[2] = biological target: T1, Neuronal acetylcholine receptor subunit alpha-7; test: Agonist activity at human alpha7 nAChR expressed in Xenopus laevis oocytes assessed as induction of channel current at -90 mV holding potential by two-electrode voltage clamp method; assay type: cell-based
[3] = biological target: T1, Neuronal acetylcholine receptor subunit alpha-7; test: Positive allosteric modulation of human alpha7 nAChR expressed in Xenopus laevis oocytes assessed as increase in acetylcholine-induced channel current at -90 mV holding potential preincubated for 2 mins followed by co-application with acetylcholine for 10 secs by two-electrode voltage clamp method; assay type: cell-based
[4] = test system: Mus musculus; test: Anti-schizophrenic activity in C57BL/6J mouse assessed as protection against MK-801-induced auditory gating deficit by measuring prepulse inhibition impairment at 1 mg/kg, ip at 8 to 16 dB prepulse intensity (reference value: 11%); assay type: functional; design: scale not given: the % may be the effect or the level left

T1 sequence (P36544 whole entry): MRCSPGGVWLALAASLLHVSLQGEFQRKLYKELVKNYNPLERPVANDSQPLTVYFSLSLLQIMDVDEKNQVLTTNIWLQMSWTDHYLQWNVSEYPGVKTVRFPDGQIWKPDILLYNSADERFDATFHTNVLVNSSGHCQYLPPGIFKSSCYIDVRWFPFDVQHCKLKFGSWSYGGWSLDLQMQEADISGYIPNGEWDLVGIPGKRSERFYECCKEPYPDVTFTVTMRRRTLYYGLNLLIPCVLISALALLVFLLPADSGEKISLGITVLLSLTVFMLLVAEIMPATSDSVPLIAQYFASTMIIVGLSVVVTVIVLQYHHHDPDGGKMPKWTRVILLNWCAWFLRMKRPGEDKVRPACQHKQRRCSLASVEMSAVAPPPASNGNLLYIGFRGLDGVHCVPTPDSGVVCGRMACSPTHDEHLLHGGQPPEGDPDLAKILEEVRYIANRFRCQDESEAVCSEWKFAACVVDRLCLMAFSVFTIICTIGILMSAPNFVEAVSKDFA

Row | %max [1] | Activity [2] | EC50 [3] [µM] | Structure (SMILES) | Activity [4] [%]
1 | 1140% | inactive | 7.65 | Cc1cccc(Cl)c1-n1cnc2nc(SCc3cccc(F)c3)sc2c1=O | 
2 | 450% | inactive | 20.4 | Cc1ccc(C(=O)Nc2nc3ncn(-c4c(C)cccc4Cl)c(=O)c3s2)cc1 | 
3 | 320% | inactive |  | Cc1cccc(Cl)c1-n1cnc2nc(SCc3ccc(Br)cc3)sc2c1=O | 
4 | 185% | inactive |  | Cc1ccc(-c2nc3ncn(-c4c(C)cccc4Cl)c(=O)c3s2)cc1 | 
5 | 1620% | inactive | 8.45 | Cc1ccc(Nc2nc3ncn(-c4c(C)cccc4Cl)c(=O)c3s2)cc1 | 
6 | 250% | inactive |  | CCc1ccc(Nc2nc3ncn(-c4c(C)cccc4Cl)c(=O)c3s2)cc1 | 
7 | 107% | inactive |  | Cc1ccc(N(C)c2nc3ncn(-c4c(C)cccc4Cl)c(=O)c3s2)cc1 | 
8 | 226% | inactive |  | Cc1ccc(Sc2nc3ncn(-c4c(C)cccc4Cl)c(=O)c3s2)cc1 | 
9 | 444% | inactive | 1.19 | Cc1cccc(Cl)c1-n1cnc2nc(SCc3ccc(Cl)cc3)sc2c1=O | 
10 | 788% | inactive | 2.17 | Cc1cccc(Cl)c1-n1cnc2nc(SCc3ccc(F)cc3)sc2c1=O | 
11 | 1540% | inactive |  | Cc1cccc(Nc2nc3ncn(-c4c(C)cccc4Cl)c(=O)c3s2)c1 | 
12 | 111% | inactive |  | Cc1ccc(CNc2nc3ncn(-c4c(C)cccc4Cl)c(=O)c3s2)cc1 | 
13 | 97% | inactive |  | Cc1ccc(S(=O)(=O)Nc2nc3ncn(-c4c(C)cccc4Cl)c(=O)c3s2)cc1 | 
14 | 292% | inactive |  | COc1ccc(CSc2nc3ncn(-c4c(C)cccc4Cl)c(=O)c3s2)cc1 | 
15 | 112% | inactive |  | Cc1cccc(Cl)c1-n1cnc2nc(SCCc3ccccc3)sc2c1=O | 
16 | 321% | inactive |  | Cc1ccc(CSc2nc3ncn(-c4c(C)cccc4Cl)c(=O)c3s2)cc1 | 
17 | 1050% | inactive | 3.54 | Cc1cccc(Cl)c1-n1cnc2nc(SCc3ccc(F)cc3F)sc2c1=O | 
18 | 174% | inactive |  | Cc1cccc(Cl)c1-n1cnc2nc(SCCCc3ccccc3)sc2c1=O | 
19 | 300% | inactive |  | Cc1ccccc1Nc1nc2ncn(-c3c(C)cccc3Cl)c(=O)c2s1 | 
20 | 558% | inactive | 2.05 | Cc1cccc(Cl)c1-n1cnc2nc(SCc3ccccc3F)sc2c1=O | 

The remaining lines, values behind:

Row | Structure (SMILES) | %max [1] | Activity [2] | EC50 [3] [µM] | Activity [4] [%]
21 | Cc1cccc(Cl)c1-n1cnc2nc(Nc3ccc(Br)cc3)sc2c1=O | 150% | inactive |  | 
22 | Cc1nc(Cl)cc(Nc2nc3ncn(-c4c(C)cccc4Cl)c(=O)c3s2)n1 | 320% | inactive |  | 
23 | Cc1ccc(Nc2nc3ncn(-c4c(C)cccc4Cl)c(=O)c3s2)cc1F | 387% | inactive | 5.65 | 
24 | Cc1cc(C)cc(Nc2nc3ncn(-c4c(C)cccc4Cl)c(=O)c3s2)c1 | 1100% | inactive |  | 
25 | Cc1cccc(Cl)c1-n1cnc2nc(Nc3ccc(OC(F)(F)F)cc3)sc2c1=O | 200% | inactive |  | 
26 | Cc1ccccc1-n1cnc2nc(SCc3ccccc3)sc2c1=O | 171% | inactive |  | 
27 | O=c1c2sc(SCc3ccccc3)nc2ncn1-c1cccc(F)c1 | 119% | inactive |  | 
28 | Cc1cccc(Cl)c1-n1cnc2nc(Nc3ccc(F)c(F)c3)sc2c1=O | 300% | inactive |  | 
29 | Cc1cc(Nc2nc3ncn(-c4c(C)cccc4Cl)c(=O)c3s2)cc(C)c1C | 600% | inactive |  | 
30 | Cc1cccc(Cl)c1-n1cnc2nc(Nc3cccc(Cl)c3)sc2c1=O | 300% | inactive |  | 
31 | O=c1c2sc(SCc3ccccc3)nc2ncn1-c1ccccc1Cl | 217% | inactive |  | 
32 | Cc1cccc(Cl)c1-n1cnc2nc(Nc3ccc(F)cc3)sc2c1=O | 250% | inactive |  | 
33 | Cc1ccc(Nc2nc3ncn(-c4c(C)cccc4Cl)c(=O)c3s2)cc1C | 650% | inactive |  | 
34 | Cc1cccc(Cl)c1Nc1ncnc2nc(SCc3ccccc3)sc12 | 33% | inactive |  | 
35 | CN1CCN(C2=Nc3cc(Cl)ccc3Nc3ccccc32)CC1 [CLOZAPINE] |  |  |  | 32
36 | Cc1cccc(Cl)c1-n1cnc2nc(Nc3ccc(Cl)nn3)sc2c1=O | inactive | inactive |  | 

Row | Structure (SMILES) | %max [1] | Activity [2] | EC50 [3] [µM] | Activity [4] [%]
37 | Cc1cccc(Cl)c1-n1cnc2nc(Nc3ccc(Cl)cc3)sc2c1=O | 200% | inactive |  | 
38 | Cc1ccc(Nc2ccc3ncn(-c4c(C)cccc4Cl)c(=O)c3c2)cc1 | 63% | inactive |  | 
39 | O=c1c2sc(SCc3ccccc3)nc2ncn1-c1ccc(F)cc1 | 75% | inactive |  | 
40 | Cc1cccc(Cl)c1-n1cnc2nc(NCc3ccccc3)sc2c1=O | inactive | inactive |  | 
41 | Cc1cccc(Cl)c1-n1cnc2nc(Nc3ccccc3F)sc2c1=O | 200% | inactive |  | 
42 | Cc1cccc(Cl)c1-n1cnc2nc(Nc3ccccc3)sc2c1=O | 300% | inactive |  | 
43 | Cc1cccc(Cl)c1-n1cnc2nc(Nc3ccncn3)sc2c1=O | 101% | inactive |  | 
44 | Cc1cccc(Cl)c1-n1cnc2nc(Nc3ccccn3)sc2c1=O | inactive | inactive |  | 
45 | Cc1cc(Cl)cc(Nc2nc3ncn(-c4c(C)cccc4Cl)c(=O)c3s2)c1 | 305% | inactive |  | 
46 | CCCNc1nc2ncn(-c3c(C)cccc3Cl)c(=O)c2s1 | inactive | inactive |  | 
47 | Cc1cccc(Cl)c1-n1cnc2nc(Nc3cccc(F)c3)sc2c1=O | 450% | inactive |  | 
48 | O=c1c2sc(SCc3ccccc3)nc2ncn1-c1ccc(Cl)cc1 | 104% | inactive |  | 
49 | O=c1c2sc(SCc3ccccc3)nc2ncn1-c1ccccc1F | 127% | inactive |  | 
50 | COc1ccc(Nc2nc3ncn(-c4c(C)cccc4Cl)c(=O)c3s2)cc1 | 200% | inactive |  | 
51 | Cc1cccc(Cl)c1-n1cnc2nc(Nc3cc(Cl)ncn3)sc2c1=O | 200% | inactive |  | 
